Experimental findings from patent US5063210A, “Use of sulfated polysaccharides to decrease cholesterol and fatty acid absorption” (priority 1989, dated 1991) are described below.

As a reminder, the IC50 is the concentration at which inhibition is half-maximal. A high value points to weaker potency in that assay.

Holding throughout (format): biochemical
Series [1] concerns human pancreatic cholesterol esterase. Kind of series: Inhibition of human pancreatic cholesterol esterase, hydrolysis of cholesteryl 14C-oleate in phosphatidylcholine vesicles. As to conditions: for IC50 / IC50, inhibition of cholesterol esterase (cholesteryl oleate hydrolysis): substrate cholesteryl 14C-oleate, 37° C., 15 min; for IC50: molar values from assumed molecular weights.

Series [2] concerns the target human 100 kDa cholesterol esterase. Kind of series: Inhibition of triolein hydrolysis by the human 100 kDa cholesterol esterase. Conditions: substrate triolein instead of cholesteryl oleate. As for the experimental part: Alginic acid from Macrocystis pyrifera (kelp) was dissolved in water at a concentration of 1 mg/ml. This stock solution was used to prepare various polysaccharide concentrations down to 10^-5 mg/ml. Human pancreatic cholesterol esterase was purified as described by Bosner et al., Proc. Nat'l. Acad. Sci., 85, 7438 (1988). To measure cholesterol esterase inhibition by alginic acid, 50 μl of cholesterol esterase (10 μg/ml), 75 μl of phosphatidylcholine vesicles containing cholesteryl ^14 C-oleate (1 mM 2,000 CPM/nmole), 25 μl of 100 mM taurocholate, 120 μl of 150 mM Tris, pH 7.5 and 30 μl of test alginic acid solution were incubated at 37° C. for fifteen minutes. The assay was quenched by placing the reaction vessels in a 4° C. ice bath and by adding 0.6 ml of 0.3 N NaOH and 3 ml of benzene/chloroform/methanol (1.0/1.2/0.5). The quenched reactions were vortexed for 30 seconds, centrifuged at 3,000 g for 15 minutes and 1 ml of the upper aqueous phase was added to 7 ml of Aquasol-2 (DuPont) with 0.025 ml of 6 N HCl. These mixtures were vortexed for one minute and counted for ^14 C-oleate. The counts were compared to a sample which contained cholesterol esterase but no alginic acid to determine the percentage of inhibition.
(The same assay procedure was used as described in Part I, only triolein was used instead of cholesteryl oleate.) As shown in the table below, the IC50 for inhibition of triolein hydrolysis is nearly the same as that for cholesteryl oleate hydrolysis.

For another series, the system named is cholesterol esterase. Kind of series: Baking stability: cholesterol esterase inhibition by water extract of a baked corn muffin containing the inhibitor. Conditions: baked fifteen minutes in a 400° oven. As for the experimental part: The sulfated polysaccharides described here retain their inhibitory activity for prolonged periods at elevated temperatures. […] For example, 109 mg of cellulose sulfate were added to 198 gm (7 oz) of corn muffin mix (Gold Medal®) and the solid ingredients were thoroughly mixed together. After the addition of one egg and one-third cup milk, the muffin mix was stirred fifteen times. The mixture was poured into nine muffin tins and baked for fifteen minutes in a 400° oven. The next day one muffin was broken up, added to 100 ml of water and allowed to stand for fifteen minutes. The mixture was centrifuged and the clear supernatant was assayed for the presence of cholesterol esterase inhibition. The IC50 of this solution was achieved when this solution was diluted 10^3 -10^4 times.

pectin [native, unsulfated pectin]: the “Inhibition of cholesterol esterase (in words)” value in series [1] is given as “does not inhibit cholesterol esterase”.
Turning to Chitin Sulfate, the IC50 in series [1] amounted to 0.06 nM; in series [2], 0.14 nM.
As to Cellulose Sulfate, the figures for the IC50 in series [1] and in series [2] were 0.02 nM and 0.06 nM, respectively. The “Stability of inhibitory activity under baking conditions / elevated temperatures” value with cholesterol esterase is “stable under baking conditions”.
In series [1], agar [native (unsulfated) agar] yielded an IC50 of 30 nM. That is a double-digit nanomolar value.
As for Alginic acid, in series [1] (IC50 of alginic acid relative to IC50 of the sulfated derivative), the “Enhancement Factor” value was determined as 1.0. In addition, the “IC50, inhibition of cholesterol esterase (cholesteryl oleate hydrolysis)” value in series [1] is 4 µg/mL. Moreover, the figures for the half-maximal inhibitory concentration (IC50) in series [1] and in series [2] were 20 nM and 42 nM, respectively.
For Chitosan Sulfate, in series [1], the “IC50, inhibition of cholesterol esterase (cholesteryl oleate hydrolysis)” value was 0.015 µg/mL and half-maximal inhibition (IC50) was put at 0.03 nM. In addition, 0.16 nM corresponded to half-maximal inhibition in series [2] (IC50).
